Our source for the IC50 values is US20240409585A1, “MACROCYCLIC IMMUNOMODULATORS” (priority 2021, published 2024).

Bridge positions count the residues as written; N and C are the ends. Square brackets hold non-standard residues; d marks the D form. Peptide text beside a SMILES is read from it. * marks the point of attachment. ξ: configuration not given here. Phe(4-COOH) = N[C@@H](Cc1ccc(C(=O)O)cc1)C(=O)O; Bip = N[C@@H](Cc1ccc(-c2ccccc2)cc1)C(=O)O; Phe(4-CN) = N#Cc1ccc(C[C@H](N)C(=O)O)cc1; dPhe(4-Cl) = N[C@H](Cc1ccc(Cl)cc1)C(=O)O; Phe(3-Me) = Cc1cccc(C[C@H](N)C(=O)O)c1; Val(3-OH) = CC(C)(O)[C@H](N)C(=O)O; 4Pal = N[C@@H](Cc1ccncc1)C(=O)O; Cha = N[C@@H](CC1CCCCC1)C(=O)O; Cit = NC(=O)NCCC[C@H](N)C(=O)O; Ile(3ξ) = CCC(C)[C@H](N)C(=O)O; Thr(3ξ) = CC(O)[C@H](N)C(=O)O; Ala(CN) = N#CC[C@H](N)C(=O)O; Carboxymethyl = O=C(O)C*; NMeA = CN[C@@H](C)C(=O)O; Orn = NCCC[C@H](N)C(=O)O; Dab = NCC[C@H](N)C(=O)O

The assay deals with T1, PE-labeled human PD-L1-Ig binding to Jurkat cell line over-expressing human PD-1 (Jurkat-PD-1) (Homo sapiens, UniProt Q15116).
T1 construct: expressed in transfected cells; host or cells: Jurkat
T1 sequence (Q15116 25-288): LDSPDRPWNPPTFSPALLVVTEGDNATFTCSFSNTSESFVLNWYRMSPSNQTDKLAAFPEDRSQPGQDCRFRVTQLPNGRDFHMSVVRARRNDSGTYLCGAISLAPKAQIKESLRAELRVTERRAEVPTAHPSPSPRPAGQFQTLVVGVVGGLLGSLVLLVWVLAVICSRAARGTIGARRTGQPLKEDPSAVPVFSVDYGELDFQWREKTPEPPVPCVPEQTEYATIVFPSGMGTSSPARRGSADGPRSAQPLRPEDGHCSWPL
Kind of assay: Jurkat-PD-1 Cell Binding High-Content Screening Assay (CBA): Method 1. Conditions: Jurkat-hPD-1 cells, PE-labeled PD-L1-Ig 20 nM final; read-out: Jurkat HPDL1 PD1 IC50 (uM) (Method 1).
As for `CCC(C)[C@@H]1NC(=O)[C@H](Cc2ccc(-c3ccccc3)cc2)NC(=O)[C@H](CC(C)C)NC(=O)[C@H](Cc2c[nH]c3ccccc23)NC(=O)[C@H](CC(=O)O)NC(=O)[C@H](Cc2ccc(OCC(=O)O)cc2)NC(=O)[C@H](C(C)O)NC(=O)CSC[C@@H](C(=O)N[C@@H](CC(N)=O)C(=O)O)NC(=O)[C@H](CC#N)NC(=O)[C@H](C(C)C)NC(=O)[C@H](CC(C)C)NC(=O)[C@H](CCN)NC(=O)[C@@H](CC(C)C)NC(=O)[C@H](C)N(C)C1=O` (stereo partly drawn) [Compound 2226] ({CH2CO}-[Thr(3ξ)]Y(Carboxymethyl)DWL[Bip][Ile(3ξ)][NMeA][dL][Dab]LV[Ala(CN)]CN-OH; thioether N-14), the half-inhibitory concentration (IC50) amounted to 0.06 µM.

Turning to `Cc1cccc(C[C@@H]2NC(=O)[C@H](CC(=O)O)NC(=O)[C@H](Cc3ccc(OCC(=O)O)cc3)NC(=O)[C@H](Cc3ccc(OCC(=O)O)cc3)NC(=O)CSC[C@@H](C(N)=O)NC(=O)[C@H](CC(=O)O)NC(=O)[C@H](C(C)C)NC(=O)[C@H](CC3CCCCC3)NC(=O)[C@H](CCN)NC(=O)[C@@H](CC(C)C)NC(=O)[C@H](C)N(C)C(=O)[C@H](Cc3ccc(OCC(=O)O)cc3)NC(=O)[C@H](Cc3ccc(-c4ccccc4)cc3)NC(=O)[C@H](Cc3ccc(OCC(=O)O)cc3)NC2=O)c1` [Compound 1654] ({CH2CO}-Y(Carboxymethyl)Y(Carboxymethyl)D[Phe(3-Me)]Y(Carboxymethyl)[Bip]Y(Carboxymethyl)[NMeA][dL][Dab][Cha]VDC-NH2; thioether N-14), the IC50 was 0.08 µM.

Regarding `CCC(C)[C@@H]1NC(=O)[C@H](Cc2ccc(-c3ccccc3)cc2)NC(=O)[C@H](CC(C)C)NC(=O)[C@H](Cc2c[nH]c3ccccc23)NC(=O)[C@H](CC(=O)O)NC(=O)[C@H](Cc2ccc(C(=O)O)cc2)NC(=O)[C@H](Cc2ccc(OCC(=O)O)cc2)NC(=O)CSC[C@@H](C(=O)N[C@@H](CO)C(N)=O)NC(=O)[C@H]([C@@H](C)O)NC(=O)[C@H](C(C)C)NC(=O)[C@H](CC2CCCCC2)NC(=O)[C@H](CCN)NC(=O)[C@@H](CC(C)C)NC(=O)[C@H](C)N(C)C1=O` (stereo partly drawn) [Compound 1928] ({CH2CO}-Y(Carboxymethyl)[Phe(4-COOH)]DWL[Bip][Ile(3ξ)][NMeA][dL][Dab][Cha]VTCS-NH2; thioether N-14), the IC50 amounted to 0.02 µM.

As for `CC(C)C[C@@H]1NC(=O)[C@H](CCN)NC(=O)[C@@H](CC(C)C)NC(=O)[C@H](C)N(C)C(=O)[C@H](CCCNC(=N)N)NC(=O)[C@H](Cc2ccc(-c3ccccc3)cc2)NC(=O)[C@H](C(C)C)NC(=O)[C@H](Cc2c[nH]c3ccccc23)NC(=O)[C@H](CC(=O)O)NC(=O)[C@H](Cc2ccc(C#N)cc2)NC(=O)[C@H](Cc2ccncc2)NC(=O)CSC[C@@H](C(=O)N[C@@H](C)C(N)=O)NC(=O)[C@H]([C@@H](C)O)NC(=O)[C@H](C(C)C)NC1=O` [Compound 1446] ({CH2CO}-[4Pal][Phe(4-CN)]DWV[Bip]R[NMeA][dL][Dab]LVTCA-NH2; thioether N-14), the IC50 is 0.08 µM.

Turning to `CC(C)C[C@@H]1NC(=O)[C@H](Cc2c[nH]c3ccccc23)NC(=O)[C@H](CC(=O)O)NC(=O)[C@H](Cc2ccc(C(=O)O)cc2)NC(=O)[C@H](Cc2ccc(OCC(=O)O)cc2)NC(=O)CSC[C@@H](C(=O)N[C@@H](C)C(N)=O)NC(=O)[C@H](CO)NC(=O)[C@H](C(C)C)NC(=O)[C@H](CC(C)C)NC(=O)[C@H](CC(N)=O)NC(=O)[C@@H](C)NC(=O)[C@H](C)N(C)C(=O)[C@H](C(C)C)NC(=O)[C@H](Cc2ccc(-c3ccccc3)cc2)NC1=O` [Compound 1560] ({CH2CO}-Y(Carboxymethyl)[Phe(4-COOH)]DWL[Bip]V[NMeA][dA]NLVSCA-NH2; thioether N-14), the IC50 is 0.02 µM.

Turning to `CC(C)C[C@@H]1NC(=O)[C@H](CCCNC(=N)N)NC(=O)[C@@H](CC(C)C)NC(=O)[C@H](C)N(C)C(=O)[C@H](CCCN)NC(=O)[C@H](Cc2ccc(-c3ccccc3)cc2)NC(=O)[C@H](C(C)C)NC(=O)[C@H](Cc2c[nH]c3ccccc23)NC(=O)[C@H](CC(=O)O)NC(=O)[C@H](Cc2ccc(O)cc2)NC(=O)[C@H](CC(N)=O)NC(=O)CSC[C@@H](C(=O)N[C@@H](C)C(N)=O)NC(=O)[C@H]([C@@H](C)O)NC(=O)[C@H](C(C)C)NC1=O` [Compound 1288] ({CH2CO}-NYDWV[Bip][Orn][NMeA][dL]RLVTCA-NH2; thioether N-14), the 50% inhibitory concentration (IC50) turned out to be 0.08 µM.

On to `CC(C)C[C@@H]1NC(=O)[C@H](CCCNC(=N)N)NC(=O)[C@@H](CC(C)C)NC(=O)[C@H](C)N(C)C(=O)[C@H](CCCNC(=N)N)NC(=O)[C@H](Cc2ccc(-c3ccccc3)cc2)NC(=O)[C@H](C(C)C)NC(=O)[C@H](Cc2c[nH]c3ccccc23)NC(=O)[C@H](CC(=O)O)NC(=O)[C@H](Cc2ccc(O)cc2)NC(=O)[C@H](Cc2cnc[nH]2)NC(=O)CSC[C@@H](C(=O)N[C@@H](C)C(N)=O)NC(=O)[C@H]([C@@H](C)O)NC(=O)[C@H](C(C)C)NC1=O` [Compound 1047] ({CH2CO}-HYDWV[Bip]R[NMeA][dL]RLVTCA-NH2; thioether N-14), for which the IC50 is 0.07 µM.

As for `Cc1cccc(C[C@@H]2NC(=O)[C@H](CC(=O)O)NC(=O)[C@H](Cc3ccc(OCC(=O)O)cc3)NC(=O)[C@H](Cc3ccncc3)NC(=O)CSC[C@@H](C(=O)N[C@@H](CCN)C(N)=O)NC(=O)[C@H](CO)NC(=O)[C@H](C(C)(C)O)NC(=O)[C@H](CC3CCCCC3)NC(=O)[C@H](CCN)NC(=O)[C@@H](CC(C)C)NC(=O)[C@H](C)N(C)C(=O)[C@H](Cc3ccc(OCC(=O)O)cc3)NC(=O)[C@H](Cc3ccc(-c4ccccc4)cc3)NC(=O)[C@H](Cc3ccc(OCC(=O)O)cc3)NC2=O)c1` [Compound 2135] ({CH2CO}-[4Pal]Y(Carboxymethyl)D[Phe(3-Me)]Y(Carboxymethyl)[Bip]Y(Carboxymethyl)[NMeA][dL][Dab][Cha][Val(3-OH)]SC[Dab]-NH2; thioether N-14), the IC50 is 0.01 µM.

`CC(C)C[C@@H]1NC(=O)[C@H](CCN)NC(=O)[C@@H](CC(C)C)NC(=O)[C@H](C)N(C)C(=O)[C@H](CCCNC(N)=O)NC(=O)[C@H](Cc2ccc(-c3ccccc3)cc2)NC(=O)[C@H](C(C)C)NC(=O)[C@H](Cc2c[nH]c3ccccc23)NC(=O)[C@H](CC(=O)O)NC(=O)[C@H](Cc2ccncc2)NC(=O)[C@H](CC(N)=O)NC(=O)CSC[C@@H](C(=O)N[C@@H](C)C(N)=O)NC(=O)[C@H]([C@@H](C)O)NC(=O)[C@H](C(C)C)NC1=O` [Compound 1320] ({CH2CO}-N[4Pal]DWV[Bip][Cit][NMeA][dL][Dab]LVTCA-NH2; thioether N-14): the concentration for half-maximal inhibition (IC50) came out at 0.02 µM.

`CC(C)C[C@@H]1NC(=O)[C@H](CCN)NC(=O)[C@@H](CC(C)C)NC(=O)[C@H](C)N(C)C(=O)[C@H](CCCNC(N)=O)NC(=O)[C@H](Cc2ccc(-c3ccccc3)cc2)NC(=O)[C@H](C(C)C)NC(=O)[C@H](Cc2c[nH]c3ccccc23)NC(=O)[C@H](CC(=O)O)NC(=O)[C@H](Cc2ccc(C#N)cc2)NC(=O)[C@H](Cc2ccncc2)NC(=O)CSC[C@@H](C(=O)N[C@@H](C)C(N)=O)NC(=O)[C@H]([C@@H](C)O)NC(=O)[C@H](C(C)C)NC1=O` [Compound 1402] ({CH2CO}-[4Pal][Phe(4-CN)]DWV[Bip][Cit][NMeA][dL][Dab]LVTCA-NH2; thioether N-14): the IC50 was 0.02 µM.

On to `CC(C)C[C@@H]1NC(=O)[C@H](CCCCN)NC(=O)[C@@H](CC(C)C)NC(=O)[C@H](C)N(C)C(=O)[C@H](CCCNC(=N)N)NC(=O)[C@H](Cc2ccc(-c3ccccc3)cc2)NC(=O)[C@H](C(C)C)NC(=O)[C@H](Cc2c[nH]c3ccccc23)NC(=O)[C@H](CC(=O)O)NC(=O)[C@H](Cc2ccc(O)cc2)NC(=O)[C@H](CC(N)=O)NC(=O)CSC[C@@H](C(=O)N[C@@H](C)C(N)=O)NC(=O)[C@H]([C@@H](C)O)NC(=O)[C@H](C(C)C)NC1=O` [Compound 1269] ({CH2CO}-NYDWV[Bip]R[NMeA][dL]KLVTCA-NH2; thioether N-14), for which the IC50 worked out at 0.03 µM.

Regarding `Cc1cccc(C[C@@H]2NC(=O)[C@H](CC(=O)O)NC(=O)[C@H](Cc3ccc(O)cc3)NC(=O)[C@H](CC(N)=O)NC(=O)CSC[C@@H](C(=O)N[C@@H](CCN)C(N)=O)NC(=O)[C@H]([C@@H](C)O)NC(=O)[C@H](C(C)(C)O)NC(=O)[C@H](CC3CCCCC3)NC(=O)[C@H](CCN)NC(=O)[C@@H](CC(C)C)NC(=O)[C@H](C)N(C)C(=O)[C@H](CCCNC(N)=O)NC(=O)[C@H](Cc3ccc(-c4ccccc4)cc3)NC(=O)[C@H](C(C)C)NC2=O)c1` [Compound 1701] ({CH2CO}-NYD[Phe(3-Me)]V[Bip][Cit][NMeA][dL][Dab][Cha][Val(3-OH)]TC[Dab]-NH2; thioether N-14), the half-inhibitory concentration (IC50) came out at 0.01 µM.

Consider `CC(C)C[C@@H]1NC(=O)[C@H](CCCNC(=N)N)NC(=O)[C@@H](Cc2ccc(Cl)cc2)NC(=O)[C@H](C)N(C)C(=O)[C@H](CCCNC(=N)N)NC(=O)[C@H](Cc2ccc(-c3ccccc3)cc2)NC(=O)[C@H](C(C)C)NC(=O)[C@H](Cc2c[nH]c3ccccc23)NC(=O)[C@H](CC(=O)O)NC(=O)[C@H](Cc2ccc(O)cc2)NC(=O)[C@H](Cc2ccccc2)NC(=O)CSC[C@@H](C(=O)N[C@@H](C)C(N)=O)NC(=O)[C@H]([C@@H](C)O)NC(=O)[C@H](C(C)C)NC1=O` [Compound 1070] ({CH2CO}-FYDWV[Bip]R[NMeA][dPhe(4-Cl)]RLVTCA-NH2; thioether N-14), for which the IC50 is 0.63 µM.

On to `CCC(C)[C@@H]1NC(=O)[C@H](Cc2ccc(-c3ccccc3)cc2)NC(=O)[C@H](C(C)C)NC(=O)[C@H](Cc2c[nH]c3ccccc23)NC(=O)[C@H](CC(=O)O)NC(=O)[C@H](Cc2ccc(OCC(=O)O)cc2)NC(=O)[C@H](C(C)O)NC(=O)CSC[C@@H](C(N)=O)NC(=O)[C@H](C(C)O)NC(=O)[C@H](C(C)C)NC(=O)[C@H](CC2CCCCC2)NC(=O)[C@H](CCN)NC(=O)[C@@H](CC(C)C)NC(=O)[C@H](C)N(C)C1=O` (stereo partly drawn) [Compound 2248] ({CH2CO}-[Thr(3ξ)]Y(Carboxymethyl)DWV[Bip][Ile(3ξ)][NMeA][dL][Dab][Cha]V[Thr(3ξ)]C-NH2; thioether N-14), for which the IC50 was determined as 0.04 µM.

In general, IC50 refers to the midpoint of a concentration-inhibition curve.
